Reference: ChEMBL document CHEMBL3822374, “Anti-inflammatory polyphenol constituents derived from Cissus pteroclada Hayata” (Bioorg Med Chem Lett, 2016)

Experiments:
[1] = system: RAW264.7; test: Cytotoxicity against mouse RAW264.7 cells assessed as reduction in cell viability at 50 umol/L after 24 hrs by MTT assay; type: cell-based; conditions: raw264.7, 24 h, 50 µM
[2] = system: RAW264.7; test: Cytotoxicity against LPS-stimulated mouse RAW264.7 cells assessed as reduction in cell viability at 50 umol/L after 24 hrs by MTT assay; type: cell-based; conditions: raw264.7, 24 h, 50 µM
[3] = system: RAW264.7; test: Antiinflammatory activity against LPS-stimulated mouse RAW264.7 cells assessed as downregulation of iNOS levels by ELISA; type: functional, cell-based
[4] = Inhibition of NFkappaB signaling pathway in LPS-stimulated mouse RAW264.7 cells by ELISA; type: cell-based
[5] = system: RAW264.7; test: Antiinflammatory activity against LPS-stimulated mouse RAW264.7 cells assessed as downregulation of COX2 levels by ELISA; type: functional, cell-based
[6] = system: RAW264.7; test: Antiinflammatory activity against LPS-stimulated mouse RAW264.7 cells assessed as downregulation of NO levels by ELISA; type: functional, cell-based
[7] = system: RAW264.7; test: Antiinflammatory activity against LPS-stimulated mouse RAW264.7 cells assessed as downregulation of PGE2 levels by ELISA; type: functional, cell-based
[8] = system: RAW264.7; test: Antiinflammatory activity against LPS-stimulated mouse RAW264.7 cells assessed as TNFalpha levels at 5 umol/L by ELISA (reference value: 183.21 +/- 5.36 pg/mL); type: functional
[9] = system: RAW264.7; test: Antiinflammatory activity against LPS-stimulated mouse RAW264.7 cells assessed as TNFalpha levels at 25 umol/L by ELISA (reference value: 183.21 +/- 5.36 pg/mL); type: functional
[10] = system: RAW264.7; test: Antiinflammatory activity against LPS-stimulated mouse RAW264.7 cells assessed as TNFalpha levels at 50 umol/L by ELISA (reference value: 183.21 +/- 5.36 pg/mL); type: functional
[11] = system: RAW264.7; test: Antiinflammatory activity against LPS-stimulated mouse RAW264.7 cells assessed as IL1beta levels at 5 umol/L by ELISA (reference value: 8.70 +/- 0.365 pg/mL); type: functional
[12] = system: RAW264.7; test: Antiinflammatory activity against LPS-stimulated mouse RAW264.7 cells assessed as IL1beta levels at 25 umol/L by ELISA (reference value: 8.70 +/- 0.365 pg/mL); type: functional
[13] = system: RAW264.7; test: Antiinflammatory activity against LPS-stimulated mouse RAW264.7 cells assessed as IL1beta levels at 50 umol/L by ELISA (reference value: 8.70 +/- 0.365 pg/mL); type: functional
[14] = system: RAW264.7; test: Antiinflammatory activity against LPS-stimulated mouse RAW264.7 cells assessed as PGE2 levels at 5 umol/L by ELISA (reference value: 33.2 +/- 2.33 pg/mL); type: functional
[15] = system: RAW264.7; test: Antiinflammatory activity against LPS-stimulated mouse RAW264.7 cells assessed as PGE2 levels at 25 umol/L by ELISA (reference value: 33.2 +/- 2.33 pg/mL); type: functional
[16] = system: RAW264.7; test: Antiinflammatory activity against LPS-stimulated mouse RAW264.7 cells assessed as PGE2 levels at 50 umol/L by ELISA (reference value: 33.2 +/- 2.33 pg/mL); type: functional
[17] = system: RAW264.7; test: Antiinflammatory activity against LPS-stimulated mouse RAW264.7 cells assessed as NO levels at 5 umol/L by ELISA (reference value: 0.95 +/- 0.052 umol/mL); type: functional
[18] = system: RAW264.7; test: Antiinflammatory activity against LPS-stimulated mouse RAW264.7 cells assessed as NO levels at 25 umol/L by ELISA (reference value: 0.95 +/- 0.052 umol/mL); type: functional
[19] = system: RAW264.7; test: Antiinflammatory activity against LPS-stimulated mouse RAW264.7 cells assessed as NO levels at 50 umol/L by ELISA (reference value: 0.95 +/- 0.052 umol/mL); type: functional
[20] = system: RAW264.7; test: Antiinflammatory activity against LPS-stimulated mouse RAW264.7 cells assessed as iNOS levels at 5 umol/L by ELISA (reference value: 31.63 +/- 3.26 U/mL); type: functional
[21] = system: RAW264.7; test: Antiinflammatory activity against LPS-stimulated mouse RAW264.7 cells assessed as iNOS levels at 25 umol/L by ELISA (reference value: 31.63 +/- 3.26 U/mL); type: functional
[22] = system: RAW264.7; test: Antiinflammatory activity against LPS-stimulated mouse RAW264.7 cells assessed as iNOS levels at 50 umol/L by ELISA (reference value: 31.63 +/- 3.26 U/mL); type: functional
[23] = Inhibition of NFkappaB signaling pathway in LPS-stimulated mouse RAW264.7 cells assessed as protein levels at 5 umol/L by ELISA (reference value: 1.23 +/- 0.06 pg/mL); type: cell-based
[24] = Inhibition of NFkappaB signaling pathway in LPS-stimulated mouse RAW264.7 cells assessed as protein levels at 25 umol/L by ELISA (reference value: 1.23 +/- 0.06 pg/mL); type: cell-based
[25] = Inhibition of NFkappaB signaling pathway in LPS-stimulated mouse RAW264.7 cells assessed as protein levels at 50umol/L by ELISA (reference value: 1.23 +/- 0.06 pg/mL); type: cell-based
[26] = system: RAW264.7; test: Antiinflammatory activity against LPS-stimulated mouse RAW264.7 cells assessed as COX2 levels at 5 umol/L by ELISA (reference value: 159.64 +/- 13.56 pg/mL); type: functional
[27] = system: RAW264.7; test: Antiinflammatory activity against LPS-stimulated mouse RAW264.7 cells assessed as COX2 levels at 25 umol/L by ELISA (reference value: 159.64 +/- 13.56 pg/mL); type: functional
[28] = system: RAW264.7; test: Antiinflammatory activity against LPS-stimulated mouse RAW264.7 cells assessed as COX2 levels at 50 umol/L by ELISA (reference value: 159.64 +/- 13.56 pg/mL); type: functional
[29] = system: RAW264.7; test: Antiinflammatory activity against LPS-stimulated mouse RAW264.7 cells assessed as TNFalpha levels by ELISA (reference value: 183.21 +/- 5.36 pg/mL); type: functional
[30] = system: RAW264.7; test: Antiinflammatory activity against LPS-stimulated mouse RAW264.7 cells assessed as IL1beta levels by ELISA (reference value: 8.70 +/- 0.365 pg/mL); type: functional
[31] = system: RAW264.7; test: Antiinflammatory activity against LPS-stimulated mouse RAW264.7 cells assessed as PGE2 levels by ELISA (reference value: 33.2 +/- 2.33 pg/mL); type: functional
[32] = system: RAW264.7; test: Antiinflammatory activity against LPS-stimulated mouse RAW264.7 cells assessed as NO levels by ELISA (reference value: 0.95 +/- 0.052 umol/mL); type: functional
[33] = system: RAW264.7; test: Antiinflammatory activity against LPS-stimulated mouse RAW264.7 cells assessed as iNOS levels by ELISA (reference value: 31.63 +/- 3.26 U/mL); type: functional
[34] = Inhibition of NFkappaB signaling pathway in LPS-stimulated mouse RAW264.7 cells assessed as protein levels by ELISA (reference value: 1.23 +/- 0.06 pg/mL); type: cell-based
[35] = system: RAW264.7; test: Antiinflammatory activity against LPS-stimulated mouse RAW264.7 cells assessed as COX2 levels by ELISA (reference value: 159.64 +/- 13.56 pg/mL); type: functional

Row | Compound | Activity [1] | Activity [2] | Activity [3] | inhibition [4] | Activity [5] | Activity [6] | Activity [7] | Activity [8] | Activity [9] | Activity [10] | Activity [11] | Activity [12] | Activity [13] | Activity [14] | Activity [15] | Activity [16] | Activity [17] | Activity [18] | Activity [19] | Activity [20] | other results
1 | COc1c(O)cc2c(c1O)[C@@H]1O[C@H](COC(=O)c3cc(O)c(O)c(O)c3)[C@@H](O)[C@H](O)[C@H]1OC2=O | Non-toxic | Non-toxic | Dose-dependent effect | Dose-dependent effect | Dose-dependent effect | Dose-dependent effect | Dose-dependent effect |  |  |  |  |  |  |  |  |  |  |  |  |  | 
2 | COc1c(O)cc2c(c1O)[C@@H]1O[C@H](CO[C@H]3O[C@H](CO)[C@H](O)[C@H](O)[C@H]3O)[C@@H](O)[C@H](O)[C@H]1OC2=O | Non-toxic | Non-toxic | Dose-dependent effect | Dose-dependent effect | Dose-dependent effect | Dose-dependent effect | Dose-dependent effect |  |  |  |  |  |  |  |  |  |  |  |  |  | 
3 | O=C1O[C@@H]2[C@@H](O)[C@H](O)[C@@H](CO)O[C@H]2c2c1cc(O)c(O)c2O | Non-toxic | Non-toxic | Dose-dependent effect | Dose-dependent effect | Dose-dependent effect | Dose-dependent effect | Dose-dependent effect |  |  |  |  |  |  |  |  |  |  |  |  |  | 
4 | COc1c(O)cc2c(c1O)[C@@H]1O[C@H](CO)[C@@H](O)[C@H](O)[C@H]1OC2=O [BERGENIN] | Non-toxic | Non-toxic | Dose-dependent effect | Dose-dependent effect | Dose-dependent effect | Dose-dependent effect | Dose-dependent effect |  |  |  |  |  |  |  |  |  |  |  |  |  | 
5 | O=C(O)c1cc(O)c(O)c(O)c1 [GALLIC ACID] | Non-toxic | Non-toxic |  |  |  |  |  | 103.08 pg/mL | 80.77 pg/mL | 62.59 pg/mL | 4.33 pg/mL | 4.17 pg/mL | 4.13 pg/mL | 33.06 pg/mL | 32.74 pg/mL | 30.26 pg/mL | 0.88 µmol/mL | 0.39 µmol/mL | 0.031 µmol/mL | 35.29 U/ml | Activity [21]: 29.76 U/ml; Activity [22]: 20.57 U/ml; Activity [23]: 0.76 pg/mL; Activity [24]: 0.14 pg/mL; Activity [25]: 0.07 pg/mL; Activity [26]: 183.21 pg/mL; Activity [27]: 149.16 pg/mL; Activity [28]: 122.67 pg/mL
6 | COc1ccc2c(c1)c(CC(=O)O)c(C)n2C(=O)c1ccc(Cl)cc1 [INDOMETHACIN] |  |  |  |  |  |  |  |  |  |  |  |  |  |  |  |  |  |  |  |  | Activity [29]: 58.55 pg/mL; Activity [30]: 3.15 pg/mL; Activity [31]: 19.67 pg/mL; Activity [32]: 0.17 µmol/mL; Activity [33]: 17.38 U/ml; Activity [34]: 0.39 pg/mL; Activity [35]: 71.47 pg/mL
7 | O=c1c(O)c(-c2cc(O)c(O)c(O)c2)oc2cc(O)cc(O)c12 [MYRICETIN] | Non-toxic | Non-toxic |  |  |  |  |  | 36.23 pg/mL | 35.59 pg/mL | 35.44 pg/mL | 3.44 pg/mL | 0.91 pg/mL | 0.89 pg/mL | 27.23 pg/mL | 23.36 pg/mL | 23.33 pg/mL | 0.42 µmol/mL | 0.24 µmol/mL | 0.12 µmol/mL | 24.26 U/ml | Activity [21]: 21.38 U/ml; Activity [22]: 17.44 U/ml; Activity [23]: 0.453 pg/mL; Activity [24]: 0.443 pg/mL; Activity [25]: 0.34 pg/mL; Activity [26]: 174.99 pg/mL; Activity [27]: 142.13 pg/mL; Activity [28]: 118.25 pg/mL
8 | O=c1c(O)cccc2cc(O)c(O)c(O)c12 [PURPUROGALLIN] | Non-toxic | Non-toxic |  |  |  |  |  | 52.85 pg/mL | 44.36 pg/mL | 42.44 pg/mL | 6.7 pg/mL | 2.95 pg/mL | 2.88 pg/mL | 28.76 pg/mL | 28.11 pg/mL | 27.57 pg/mL | 0.59 µmol/mL | 0.42 µmol/mL | 0.21 µmol/mL | 31.37 U/ml | Activity [21]: 22.15 U/ml; Activity [22]: 21.64 U/ml; Activity [23]: 0.32 pg/mL; Activity [24]: 0.086 pg/mL; Activity [25]: 0.053 pg/mL; Activity [26]: 120.78 pg/mL; Activity [27]: 67.73 pg/mL; Activity [28]: 67.23 pg/mL
9 | Oc1ccc(/C=C/c2cc(O)cc(O)c2)cc1 [RESVERATROL] | Non-toxic | Non-toxic |  |  |  |  |  | 109.42 pg/mL | 96.47 pg/mL | 74.91 pg/mL | 5.26 pg/mL | 4.76 pg/mL | 2.98 pg/mL | 31.43 pg/mL | 29.15 pg/mL | 28.81 pg/mL | 0.38 µmol/mL | 0.082 µmol/mL | 0.053 µmol/mL | 29.22 U/ml | Activity [21]: 25.88 U/ml; Activity [22]: 19.26 U/ml; Activity [23]: 0.57 pg/mL; Activity [24]: 0.25 pg/mL; Activity [25]: 0.15 pg/mL; Activity [26]: 121.49 pg/mL; Activity [27]: 104.11 pg/mL; Activity [28]: 83.48 pg/mL
